Laboratory results taken from the Deep4Chem optical property database.

Test: solvent given as SMILES

Work on `c1ccc2nc3cccc(-c4ccc(-n5c6ccccc6c6ccccc65)cc4)c3cc2c1` yielded an absorption maximum (in C1CCOC1) of 359 nm, an absorption maximum (in CC#N) of 358 nm and an absorption maximum (in CC(C)=O) of 358 nm. For the same molecule, the absorption maximum (in CC(C)OC(C)C) was 359 nm, the absorption maximum (in CCCCCC) was 359 nm and the absorption maximum (in CCCCOCCCC) was 359 nm. For the same molecule, the absorption maximum (in CCOC(C)=O) was 359 nm and the absorption maximum (in CCOCC) was 358 nm.

For `F[B-]1(F)OC(c2ccc(N3CCCC3)cc2)=Cc2cccc[n+]21`, the absorption maximum (in ClC(Cl)Cl) was 438 nm.

In the case of `CC(C)(C)NC(=O)c1ccc(C(=O)NC(C)(C)C)c2c1c1c3ccc(Cl)cc3c3cc(Cl)ccc3c1c1c3ccc(Cl)cc3c3cc(Cl)ccc3c21`, the absorption maximum (in ClCCl) is reported as 395 nm.

Work on `COC(=O)c1cc2c(cc3ccc4cccc5ccc2c3c45)[nH]1` yielded an absorption maximum (in C1CCOC1) of 400 nm.

In the case of `Cc1c(C)c(B(c2c(C)c(C)c(N3c4ccccc4Oc4ccccc43)c(C)c2C)c2c(C)c(C)c(N3c4ccccc4Oc4ccccc43)c(C)c2C)c(C)c(C)c1C#N`, the absorption maximum (in c1ccc([Si](c2ccccc2)(c2ccc(-n3c4ccccc4c4ccccc43)cc2)c2ccc(-n3c4ccccc4c4ccccc43)cc2)cc1) is reported as 408 nm.

In the case of `COc1ccc(N(c2ccc(OC)cc2)c2ccc3c4cccc5c(N(c6ccc(OC)cc6)c6ccc(OC)cc6)ccc(c6cccc2c63)c54)cc1`, the absorption maximum (in C1CCCCC1) is reported as 519 nm, the absorption maximum (in C1CCOC1) is reported as 515 nm and the absorption maximum (in CC#N) is reported as 508 nm. The absorption maximum (in Cc1ccccc1) was 519 nm and the absorption maximum (in ClCCl) was 514 nm.

Molecule `CC1=CC(C)=[N+]2C1=C(C1=C(C)C3=C(C)c4c(C)cc(C)n4[B-](F)(F)[N+]3=C1C)c1c(C)cc(C)n1[B-]2(F)F` has an absorption maximum (in ClC(Cl)Cl) of 516 nm.

`O=C(c1ccc(N(c2ccccc2)c2ccccc2)cc1)[C@H]1[C@H](c2cccs2)C[C@](O)(c2ccccn2)C[C@]1(O)c1ccccn1` gave an absorption maximum (in C1CCOC1) of 370 nm, an absorption maximum (in CC#N) of 364 nm and an absorption maximum (in CCO) of 368 nm. For the same molecule, the absorption maximum (in CCOC(C)=O) was 366 nm, the absorption maximum (in CN(C)C=O) was 358 nm and the absorption maximum (in ClCCl) was 374 nm. The absorption maximum (in c1ccccc1) was 372 nm.

Molecule `C[Si]1(C)c2ccc(-c3cccs3)cc2C=Cc2cc(-c3cccs3)ccc21` has an absorption maximum (in ClCCl) of 354 nm.

Molecule `N#Cc1ccc(N(c2ccc(C#N)cc2)c2ccc3c4cccc5c(N(c6ccc(C#N)cc6)c6ccc(C#N)cc6)ccc(c6cccc2c63)c54)cc1` has an absorption maximum (in C1CCCCC1) of 446 nm, an absorption maximum (in C1CCOC1) of 452 nm and an absorption maximum (in CC#N) of 446 nm. The absorption maximum (in Cc1ccccc1) was 451 nm and the absorption maximum (in ClCCl) was 450 nm.

For `CCOC(=O)c1c2c3c(ccc(Br)c3c3cc4c(cc13)[Si](C)(C)O[Si]4(C)C)N(C)C2=O`, the absorption maximum (in CC#N) was 382 nm.

Molecule `CC1=C(/C=C/c2ccccc2)C2=Cc3c(/C=C/c4ccccc4)c(C)c(C)n3[B-](F)(F)[N+]2=C1C` has an absorption maximum (in CC#N) of 572 nm.

For `N#Cc1ccc(C#Cc2ccc(C#Cc3ccc(C#Cc4ccccc4C#N)cc3C#N)cc2C#N)cc1`, the absorption maximum (in C1CCOC1) was 356 nm, the absorption maximum (in CC#N) was 352 nm and the absorption maximum (in CN(C)C=O) was 357 nm. The absorption maximum (in ClC(Cl)Cl) was 357 nm and the absorption maximum (in c1ccccc1) was 358 nm.

Work on `CN(C)c1ccc(C(=Cc2ccc(C=O)cc2)c2ccc(N(C)C)cc2)cc1` yielded an absorption maximum (in C1CCOC1) of 407 nm.

In the case of `CCN(CC)c1ccc2cc(-c3csc(N)c3C#N)c(=O)oc2c1`, the absorption maximum (in C1CCOC1) is reported as 403 nm, the absorption maximum (in CO) is reported as 406 nm and the absorption maximum (in CS(C)=O) is reported as 406 nm. For the same molecule, the absorption maximum (in Cc1ccccc1) was 403 nm and the absorption maximum (in ClCCl) was 407 nm.

`CCN(CC)c1ccc2cc3c([o+]c2c1)/C(=C/Nc1ccccc1)CCC3` gave an absorption maximum (in CCO) of 605 nm, an absorption maximum (in ClC(Cl)Cl) of 616 nm and an absorption maximum (in ClCCl) of 615 nm.

Work on `c1cc2ccc1CCCc1cc3c(cc1CCCc1ccc(c4nsnc14)CCC3)CCC2` yielded an absorption maximum (in C1CCCCC1) of 402 nm, an absorption maximum (in CC#N) of 403 nm and an absorption maximum (in ClC(Cl)Cl) of 402 nm.

For `c12c3c4c5c1c1c6c7c2c2c8c3c3c9c4c4c%10c5c5c1c1c6c6c%11c%12c%13c%14c%15c%16c%17c%14c%14c%18c%13c%11c1c1c5c%10c5c(c%14c%10c%17c%11c%13c%16c%14c%16c%15c%12c%12c%16c(c2c7c%126)c2c8c3c(c%13c%142)c2c9c4c5c%10c%112)c%181`, the absorption maximum (in CC1CCCCC1) was 470 nm.

Molecule `C[Si]1(C)C(c2ccccc2)=Cc2ccccc21` has an absorption maximum (in ClCCl) of 333 nm.

With `CCc1ccc(-n2c3ccccc3c3cc4c(cc32)c2ccccc2n4-c2ccc(CC)cc2)cc1` the absorption maximum (in ClC(Cl)Cl) was 409 nm.

With `Cc1cc(O)c(C(C)C)cc1/N=C/c1ccc(C(F)(F)F)cc1` the absorption maximum (in C1CCCCC1) was 355 nm, the absorption maximum (in C1CCOC1) was 363 nm and the absorption maximum (in C1COCCO1) was 361 nm. For the same molecule, the absorption maximum (in CC#N) was 357 nm, the absorption maximum (in CC(C)(C)O) was 368 nm and the absorption maximum (in CC(C)O) was 367 nm. For the same molecule, the absorption maximum (in CCCCCC) was 353 nm, the absorption maximum (in CCCCO) was 367 nm and the absorption maximum (in CCO) was 364 nm. It also gave an absorption maximum (in CCOC(C)=O) of 347 nm, an absorption maximum (in CN(C)C=O) of 364 nm and an absorption maximum (in CO) of 361 nm. The absorption maximum (in CS(C)=O) was 366 nm, the absorption maximum (in ClC(Cl)Cl) was 344 nm and the absorption maximum (in ClCCl) was 343 nm. The absorption maximum (in O) was 358 nm and the absorption maximum (in OCCO) was 363 nm.

Molecule `CC1(C)C(/C=C/C2=C(c3ccc(C(=O)O)cc3)C(=C/C=C3/N(CCCCS(=O)(=O)[O-])c4ccc(S(=O)(=O)[O-])cc4C3(C)C)/CCC2)=[N+](CCCCS(=O)(=O)[O-])c2ccc(S(=O)(=O)[O-])cc21` has an absorption maximum (in CO) of 770 nm.

For `COc1cc(N(CC(=O)[O-])CC(=O)[O-])c2nc(COc3cc(C)ccc3N(CC(=O)[O-])CC(=O)[O-])ccc2c1`, the absorption maximum (in O) was 356 nm.

`CC(=O)c1cc2c(cc1F)NC(C)(C)CC2=O` gave an absorption maximum (in CC#N) of 352 nm.

Work on `CCNCC` yielded an absorption maximum (in CCCCCC) of 193 nm.

In the case of `N#CSc1ccc2n1[B-](F)(F)[N+]1=C(N3CCOCC3)C=CC1=C2c1ccccc1`, the absorption maximum (in CC#N) is reported as 452 nm, the absorption maximum (in CCCCCC) is reported as 492 nm and the absorption maximum (in CCOC(C)=O) is reported as 464 nm. For the same molecule, the absorption maximum (in CO) was 458 nm and the absorption maximum (in ClCCl) was 468 nm.

Work on `c1ccc2c(c1)Sc1ccccc1N2c1ccc2c(c1)C1(CCCC1)c1cc(N3c4ccccc4Sc4ccccc43)ccc1-2` yielded an absorption maximum (in Cc1ccccc1) of 308 nm.

Molecule `O=C1CCCC2=C1C(c1ccccc1)c1c(c3ccccc3oc1=O)N2` (stereo not drawn) has an absorption maximum (in CS(C)=O) of 368 nm.

With `C(=C\c1ccc2ccccc2c1)/c1ccc(N(c2ccccc2)c2ccccc2)cc1` the absorption maximum (in CC#N) was 371 nm and the absorption maximum (in CCCCCC) was 371 nm.

`c1cc2c3c(cccc3c1)-c1c-2c2ccccc2c2ccccc12` showed an absorption maximum (in CCCCCCC) of 397 nm.

For `CC(C)(C)c1ccc(N(c2ccccc2)c2ccc3ccc4c(N(c5ccccc5)c5ccc(C(C)(C)C)cc5)ccc5ccc2c3c54)cc1`, the absorption maximum (in ClCCl) was 428 nm.

In the case of `C(=C\c1c2ccccc2cc2ccccc12)/c1c2ccccc2cc2ccccc12`, the absorption maximum (in C1CCOC1) is reported as 400 nm.

For `Cc1ccc(C(=O)NN2C3=C(CC4=C2CCCC4=O)C(=O)CCC3)cc1`, the absorption maximum (in C1CCOC1) was 366 nm, the absorption maximum (in CC#N) was 368 nm and the absorption maximum (in CC(C)=O) was 366 nm. The absorption maximum (in CCCCCO) was 376 nm, the absorption maximum (in CO) was 374 nm and the absorption maximum (in ClC(Cl)Cl) was 370 nm. The absorption maximum (in ClCCl) was 366 nm.

In the case of `CCCCCCCCN1c2ccc(C#Cc3ccc(C(F)(F)F)cc3)cc2Sc2cc(C=O)ccc21`, the absorption maximum (in C1CCOC1) is reported as 384.01 nm, the absorption maximum (in CC#N) is reported as 380 nm and the absorption maximum (in CCCCCC) is reported as 376.01 nm. The absorption maximum (in CO) was 362 nm, the absorption maximum (in CS(C)=O) was 389.99 nm and the absorption maximum (in Cc1ccccc1) was 381.99 nm. The absorption maximum (in ClC(Cl)Cl) was 389.99 nm.

`FC(F)(F)c1ccc(C#Cc2cc(C#Cc3ccc(C(F)(F)F)cc3)c3ccc4c(C#Cc5ccc(C(F)(F)F)cc5)cc(C#Cc5ccc(C(F)(F)F)cc5)c5ccc2c3c54)cc1` showed an absorption maximum (in ClCCl) of 467 nm.

Molecule `CCCC1=Cc2nc1ccc1[nH]c(c3nc(ccc4[nH]c2cc4CCC)C(CCC)=C3)c(CN(C)C)c1CCC` has an absorption maximum (in Cc1ccccc1) of 643 nm.

`O=C(c1ccc(C(=C(c2ccccc2)c2ccccc2)c2ccccc2)cc1)c1ccc(-n2c3ccccc3c3ccccc32)cc1` gave an absorption maximum (in C1CCOC1) of 340 nm.
